Test results published in ChEMBL document CHEMBL3885861, “Open TG-GATES”.

Species: Rattus norvegicus
Test: Open TG-GATES - Regimen: Single
Format: toxicity, organism-based, Sprague-Dawley
Parameters: regimen Single, gender Male, age 6 weeks
Conditions: in vivo, po, 0 mg/kg, route gavage, dose level Control; for APTT / Bas / Eos / Fbg / Hb / Ht / Lym / MCH / MCHC / MCV / Mono / Neu / PT / Plat / RBC / Ret / WBC: tissue Blood; for KIDNEY_L / KIDNEY_R / KIDNEY_TOTAL: tissue Kidney; for LIVER: tissue Liver; for A/G / ALP / ALT / AST / BUN / CRE / Ca / Cl / DBIL / GLC / IP / K / LDH / Na / PL / RALB / TBIL / TC / TG / TP / gamma-GTP: tissue Plasma

## CNC(=C[N+](=O)[O-])NCCSCc1ccc(CN(C)C)o1 [RANITIDINE]
3 h
  TERMINAL_BW: 216.9 g
  APTT: 20.3 s
  Bas: 0%
  Eos: 0.4%
  Fbg: 215 mg/dL
  Hb: 13.7 g/dL
  Ht: 39.6%
  Lym: 83.4%
  MCH: 21.8 pg
  MCHC: 34.7%
  MCV: 62.8 fL
  Mono: 2.6%
  Neu: 10.2%
  PT: 12.4 s
  Plat: 114.3 x10_4/uL
  RBC: 632.2 x10_4/ul
  Ret: 6.8%
  WBC: 87.5 x10_2/uL
  KIDNEY_L: 1 g
  KIDNEY_R: 1 g
  KIDNEY_TOTAL: 1.9 g
  LIVER: 9.7 g
  A/G: 1.6
  ALP: 1059 IU/L
  ALT: 36.4 IU/L
  AST: 70.2 IU/L
  BUN: 10.8 mg/dL
  CRE: 0.4 mg/dL
  Ca: 10.8 mg/dL
  Cl: 103 meq/L
  DBIL: 0.068 mg/dL
  GLC: 188.2 mg/dL
  IP: 8.4 mg/dL
  K: 3.8 meq/L
  LDH: 130.4 IU/L
  Na: 140.8 meq/L
  PL: 136.8 mg/dL
  RALB: 3.3 g/dL
  TBIL: 0.1 mg/dL
  TC: 75.2 mg/dL
  TG: 50.8 mg/dL
  TP: 5.3 g/dL
  gamma-GTP: 1 IU/L
6 h
  TERMINAL_BW: 213.6 g
  APTT: 19.4 s
  Bas: 0%
  Eos: 1%
  Fbg: 238.2 mg/dL
  Hb: 13.6 g/dL
  Ht: 38.7%
  Lym: 79%
  MCH: 22.3 pg
  MCHC: 35%
  MCV: 63.7 fL
  Mono: 2.6%
  Neu: 15.8%
  PT: 12.2 s
  Plat: 123.3 x10_4/uL
  RBC: 608.8 x10_4/ul
  Ret: 7.6%
  WBC: 97.4 x10_2/uL
  KIDNEY_L: 0.9 g
  KIDNEY_R: 0.9 g
  KIDNEY_TOTAL: 1.9 g
  LIVER: 9.5 g
  A/G: 1.7
  ALP: 839.8 IU/L
  ALT: 35.2 IU/L
  AST: 64.6 IU/L
  BUN: 10.2 mg/dL
  CRE: 0.4 mg/dL
  Ca: 10.7 mg/dL
  Cl: 102.8 meq/L
  DBIL: 0.066 mg/dL
  GLC: 195.2 mg/dL
  IP: 8.6 mg/dL
  K: 3.9 meq/L
  LDH: 111 IU/L
  Na: 140.2 meq/L
  PL: 146 mg/dL
  RALB: 3.4 g/dL
  TBIL: 0.1 mg/dL
  TC: 84.2 mg/dL
  TG: 55.4 mg/dL
  TP: 5.4 g/dL
  gamma-GTP: 1 IU/L
9 h
  TERMINAL_BW: 211.2 g
  APTT: 20.2 s
  Bas: 0%
  Eos: 1%
  Fbg: 230 mg/dL
  Hb: 13.6 g/dL
  Ht: 39.1%
  Lym: 81%
  MCH: 21.7 pg
  MCHC: 34.8%
  MCV: 62.4 fL
  Mono: 2%
  Neu: 14.2%
  PT: 12.3 s
  Plat: 120.9 x10_4/uL
  RBC: 627.6 x10_4/ul
  Ret: 7%
  WBC: 71.4 x10_2/uL
  KIDNEY_L: 1 g
  KIDNEY_R: 1 g
  KIDNEY_TOTAL: 1.9 g
  LIVER: 8.8 g
  A/G: 1.6
  ALP: 783.8 IU/L
  ALT: 29.8 IU/L
  AST: 62.8 IU/L
  BUN: 10 mg/dL
  CRE: 0.4 mg/dL
  Ca: 10.5 mg/dL
  Cl: 103.2 meq/L
  DBIL: 0.066 mg/dL
  GLC: 210.8 mg/dL
  IP: 8.5 mg/dL
  K: 3.9 meq/L
  LDH: 122.8 IU/L
  Na: 141.2 meq/L
  PL: 134 mg/dL
  RALB: 3.4 g/dL
  TBIL: 0.1 mg/dL
  TC: 76.8 mg/dL
  TG: 28.8 mg/dL
  TP: 5.5 g/dL
  gamma-GTP: 1.2 IU/L
24 h
  TERMINAL_BW: 228.8 g
  APTT: 21.3 s
  Bas: 0.2%
  Eos: 1%
  Fbg: 227.4 mg/dL
  Hb: 13.7 g/dL
  Ht: 39.1%
  Lym: 83.6%
  MCH: 22.5 pg
  MCHC: 35.2%
  MCV: 63.9 fL
  Mono: 2.2%
  Neu: 11.8%
  PT: 11.9 s
  Plat: 130.4 x10_4/uL
  RBC: 611.2 x10_4/ul
  Ret: 6.6%
  WBC: 112 x10_2/uL
  KIDNEY_L: 1 g
  KIDNEY_R: 1 g
  KIDNEY_TOTAL: 2.1 g
  LIVER: 10.9 g
  A/G: 1.6
  ALP: 872.4 IU/L
  ALT: 38.8 IU/L
  AST: 62.6 IU/L
  BUN: 16 mg/dL
  CRE: 0.4 mg/dL
  Ca: 10.8 mg/dL
  Cl: 102.4 meq/L
  DBIL: 0.094 mg/dL
  GLC: 190.2 mg/dL
  IP: 7.7 mg/dL
  K: 4.1 meq/L
  LDH: 121 IU/L
  Na: 140.6 meq/L
  PL: 148.8 mg/dL
  RALB: 3.5 g/dL
  TBIL: 0.1 mg/dL
  TC: 77.2 mg/dL
  TG: 78.6 mg/dL
  TP: 5.7 g/dL
  gamma-GTP: 1 IU/L
